As a reminder, the IC50 is the midpoint of a concentration-inhibition curve.

Consider one compound from patent US20120107323A1, “KINASE PROTEIN BINDING INHIBITORS” (University of Florida, priority 2009, published 2012).

In assay [1] the test system is KYSE180 esophageal cancer cells. Put plainly: Cell viability (MTT), KYSE180. Conditions: Homo sapiens, KYSE-180; KYSE180, 72 hours; read-out: IC50 of INT2-31, cell viability. It counts as cell-based. On the procedure:
(§1) Cell viability (MTT) and CFSE Proliferation assay: Cells were plated in 96-well plates and let adhere overnight. After cell treatment, cell viability was measured by 3-(4,5-dimethylthiazol-2-yl)-2,5-diphenyl tetrazolium bromide (MTT) assay (CellTiter 96® Aqueous, Promega, Madison, Wis.).
(§2) Cell viability and detachment assays: After cells were treated with siRNA transfection, cell viability was measured by 3-(4,5-dimethylthiazol2-yl)-2,5-diphenyl tetrazolium bromide (MTT) assay (CellTiter 96® AQueous, Promega, Madison, Wis.). Briefly, 20 μl of the tetrazolium compound was added to each well. The cells were then incubated at 37° C. for 1 h. The plate was read at 490 nm with a plate reader to determine the viability. In detachment assays, detached and attached cells were harvested separately and counted in a hemocytometer. The percentage of detachment was calculated by dividing the number of detached cells by the total number of cells. Apoptosis assays: After treatment, attached and detached cells were collected, counted and prepared for terminal uridine deoxynucleotidyl transferase (TUNEL) assay by utilizing an APO-BRDU kit (BD Pharmingen, San Diego, Calif.) according to the manufacturer's instructions. Stained cells were analyzed with a fluorescence-activated cell sorting-Calibur flow cytometer (BD Biosciences). […] Apoptotic cells were also analyzed by Hoechst staining. […]

Assay [2] deals with C8161 melanoma cells. In words: Apoptosis by Hoechst staining. It counts as cell-based, human. Conditions: 5 μM, 72 h. How it is done:
Detachment assay: Cells were plated with and without compound for 24, 48, and 72 h, and detached and attached cells were counted in a hemocytometer. The percent of detachment was calculated by dividing the number of detached cells by the total number of cells and experiments performed in triplicate. Apoptosis assays: After treatment, attached and detached cells were collected, counted and prepared for terminal uridine deoxynucleotidyl transferase (TUNEL) assay by utilizing an APO-BRDU kit (BD Pharmingen, San Diego, Calif.) and cells analyzed with a FACSCalibur cytometer (Becton Dickinson, San Jose, Calif.). In addition, apoptotic cells were analyzed with Hoechst 33342 staining (1 μg/ml). The percent of apoptotic cells was calculated as the ratio of apoptotic cells to total number of cells.
In addition, apoptotic cells were also analyzed by Hoechst staining. To the prepared cells as described above, Hoechst 33342 (1 μg/ml) was added, incubated in the dark room temperature for 10 minutes, and the specimens were mounted on glass coverslips. The slides were viewed under the Zeiss microscope for apoptotic nuclei. The percent of apoptotic cells was calculated as the ratio of apoptotic cells to total number of cells. Over 300 cells per sample were analyzed.

Assay [3] deals with TE9 esophageal cancer cells. Put plainly: Cell viability (MTT), TE9. Conditions: TE9, 72 hours; read-out: IC50 of INT2-31, cell viability. It counts as cell-based. On the procedure:
as §1, §2

Turning to `CSc1ncnc2c1ccn2C1O[C@H](COP(=O)(O)O)[C@@H](O)[C@H]1O` (stereo partly drawn) [INT2-31, 4-(Methylthio)-7-(5-O-phosphono-D-ribofuranosyl)-{7H-Pyrrolo[2,3-d]pyrimidine}], the half-inhibitory concentration (IC50) in assay [1] came out at 19.8 µM; in assay [3], 3.6 µM. Besides, the “induction of apoptosis, Hoescht positive cells” value in assay [2] is given as “greater than 50%”.
